Legend:
[1] = Solubility of antioxidants in 2-ethylhexanol; details: 25° C., amount varied from 100 ppm to 1,000 ppm
Description: The solubility of different antioxidants in oxo alcohol was analyzed. Alkanox™ 240, Lowinox™ CA22, and Anox™ 1315, were added to 2-ethylhexanol.

[2] = Stability: aldehyde impurity levels in 2-ethylhexanol admixed with antioxidant, heated at 50° C., analysed by GC; format: physicochemical; details: 10 ppm in 2-ethylhexanol, heated conditions (50° C.)
Description: Experimental trials were conducted in accordance with the present method. The effects of antioxidants on aldehyde impurity levels in 2-ethlyhexanol were analyzed. A fixed volume of 2-ethylhexanol was admixed with an antioxidant and was heated at 50° C. for three weeks in a hot metal block. The 50° C. temperature mimicked harsh weather conditions during which accelerated autoxidation can occur. At the end of each week (intervals of 168 hours), a sample was drawn and analyzed using gas chromatography (GC). A control sample (where antioxidant was not added) was also analyzed. Lowinox™ CA22 was further examined at lower concentrations of 10 ppm and 20 ppm.

[3] = Color analysis of plasticizers made from 2-ethylhexanol with antioxidant (Platinum-Cobalt Scale, ASTM D1209); format: physicochemical
Description: The oxo alcohol 2-ethylhexanol was mixed with different antioxidants (Anox™ 1315 and Lowinox™ CA22). Plasticizers dioctyl phthalate (DOP) and/or trioctyl trimellitate (TOTM) were then synthesized using the different 2-ethylhexanol mixtures. The DOP plasticizer was produced using a 2-ethylhexanol to phthalic acid molar ratio of 2.35 to 1. The TOTM plasticizer was produced using a 2-ethylhexanol to […] molar ratio of 3.5 to 1. The plasticizers were synthesized a temperature of 210° C. for a period of 4 hours. Phosphorous-based antioxidants, nitrogen-based antioxidants, and sulfur-based antioxidants were all found to be problematic. For example, it was observed during downstream application that when phosphorus-based antioxidants were used, initially poor solubility in the oxo alcohol was a problem and then corrosion of the reactor. Not to be limited by theory, it is believed that during the production of the plasticizers, the phosphorus-based antioxidant would be hydrolyzed, producing phosphorus acid, which corroded the reactor. Nitrogen-based antioxidants and sulfur-based antioxidants, on the other hand, adversely affected the color of the resultant plasticizers.
Color analysis of the resulting plasticizers was conducted using the Platinum-Cobalt Scale in accordance with ASTM D1209, as updated in 2011. The best in class specification for TOTM plasticizer is a score of 30 and for the DOP plasticizer is a score of 25 on the Platinum-Cobalt scale. As is shown in Table 3, trioctyl trimellitate and dioctyl phthalate were produced using 2-ethylhexanol comprising the specified antioxidant.

[4] = 2-ethylhexanol with 10 ppm antioxidant

Row | Compound | Solubility in 2-ethylhexanol [1] | Time for which aldehyde growth was stopped [2] | Platinum-Cobalt score of resulting DOP [3, 4] | Platinum-Cobalt score of resulting TOTM [3, 4] | Platinum-Cobalt score of resulting TOTM ([3]; 2-ethylhexanol with 50 ppm antioxidant)
1 | CC(C)(C)c1ccc(OP(Oc2ccc(C(C)(C)C)cc2C(C)(C)C)Oc2ccc(C(C)(C)C)cc2C(C)(C)C)c(C(C)(C)C)c1 [Alkanox™ 240, phenol, 2,4-bis(1,1-dimetylethyl)-phosphite (3:1)] | not soluble | – | – | – | –
2 | Cc1cc(O)c(C(C)(C)C)cc1C(C)CC(c1cc(C(C)(C)C)c(O)cc1C)c1cc(C(C)(C)C)c(O)cc1C (stereo not drawn) [Lowinox™ CA22, 1,1,3-tris(2′-methyl-4′-hydroxy-5′-t-butylphenyl)butane] | soluble | over 3 weeks | 20 | 28 | 30
